Series [1] concerns SARS-COV-2. In words: microbe, parasite or virus in culture. The conditions noted are these: for SI (Selectivity Index, CC50/IC50): SARS-COV-2, values >50 assumed to be 50; for IC50: read-out: SARS-COV-2 inhibition (IC50). It is filed as cell-based. Set-up: SI (Selectivity Index, CC50/IC50): unit not given here.
A short description of series [2]: in vitro. The conditions noted are these: African green monkey.
Where [3] appears, read: Severe acute respiratory syndrome coronavirus 2, Vero cells, 24 hours infection.
Setting [4] is: Severe acute respiratory syndrome coronavirus 2, Vero, 24 h.

Where a name gives a salt, the structure may show the parent alone. Read-outs that look alike come from different tables or passages of the source.

Regarding `COc1cc2cc3c(c(-c4ccc(N(C)C(=O)N5CCOCC5)nc4)c2cc1OC)C(=O)OC3` [Example 235, N-(5-(6,7-dimethoxy-3-oxo-1,3-dihydronaphtho[2,3-c]furan-4-yl)pyridin-2-yl)-N-methylmorpholin-4-carboxamide], in series [1], the “SI (Selectivity Index, CC50/IC50)” value was 1.00. For the same molecule, the IC50 in series [1] (setting [3]) is over 50 µM. The molecule further gave a CC50 in series [2] of over 50 µM.

Consider `COc1cc2cc3c(c(-c4cccc5cccnc45)c2cc1OC)C(=O)OC3` [Example 125, 6,7-dimethoxy-9-(quinolin-8-yl)naphtho[2,3-c]furan-1(3H)-one], for which, in series [1], the “SI (Selectivity Index, CC50/IC50)” value is reported as 1.0. For the same molecule, the IC50 in series [1] (setting [3]) is over 50 µM. In series [2], this molecule displayed a CC50 of over 50 µM.

Regarding `COc1cc2cc3c(c(-c4ccc(N(C)Cc5cccs5)nc4)c2cc1OC)C(=O)OC3` [Example 198, 6,7-dimethoxy-9-(6-(methyl(thiophen-2-ylmethyl)amino)pyridin-3-yl)naphtho[2,3-c]furan-1(3H)-one], in series [1], the “SI (Selectivity Index, CC50/IC50)” value came to 48.47. Besides, the IC50 in series [1] (setting [3]) came to 1.03 µM. In addition, in series [2], the CC50 was over 50 µM.

For the molecule `COc1cc2cc3c(c(-c4ccc(N(C)Cc5ccc(C)o5)nc4)c2cc1OC)C(=O)OC3` [Example 179, 6,7-dimethoxy-9-(6-(methyl((5-methylfuran-2-yl)methyl)amino)pyridin-3-yl)naphtho[2,3-c]furan-1(3H)-one], the “SI (Selectivity Index, CC50/IC50)” value in series [1] came to 49.02. The IC50 in series [1] (setting [3]) is 1.02 µM. The molecule further displayed a CC50 in series [2] of over 50 µM.

`COCCOc1cncc(-c2c3c(cc4cc(OC)c(OC)cc24)COC3=O)c1` [Example 173, 6,7-dimethoxy-9-(5-(2-methoxyethoxy)pyridin-3-yl)naphtho[2,3-c]furan-1(3H)-one]: in series [1], the “SI (Selectivity Index, CC50/IC50)” value was 1.0. The IC50 in series [1] (setting [3]) is over 50 µM. This molecule also had a CC50 in series [2] of over 50 µM.

As to `COc1cc2cc3c(c(-c4cnc(N5CCCC(O)C5)nc4)c2cc1OC)C(=O)OC3.Cl` (centres unmarked) [Example 80, 9-(2-(3-hydroxyperidin-1-ylpyrimidin-5-yl)-6,7-dimethoxynaphtho[2,3-c]furan-1(3H)-one hydrochloride], the IC50 in series [1] (setting [4]) is 11.9 µM. For the same molecule, the CC50 in series [2] was over 50 µM.

Take `COC[C@@H]1CCCN1c1ncc(-c2c3c(cc4cc(OC)c(OC)cc24)COC3=O)cn1.Cl` [Example 97, (S)-6,7-dimethoxy-9-(2-(2-(methoxymethyl)pyrrolidin-1-yl)pyrimidin-5-yl)naphtho[2,3-c]furan-1(3H)-one hydrochloride]: the “SI (Selectivity Index, CC50/IC50)” value in series [1] turned out to be 8.74. Also, the IC50 in series [1] (setting [4]) was determined as 5.72 µM. In series [2], the CC50 was over 50 µM.

Take `COc1cc2cc3c(c(-c4cnc(N5CCC(C)CC5)nc4)c2cc1OC)C(=O)OC3` [Example 107, 6,7-dimethoxy-9-(2-(4-methylpiperidin-1-yl)pyrimidin-5-yl)naphtho[2,3-c]furan-(3H)-one hydrochloride]: the “SI (Selectivity Index, CC50/IC50)” value in series [1] was determined as 35.49. In addition, in series [1] (setting [3]), the IC50 stood at 1.41 µM. Also, in series [2], the CC50 is over 50 µM.

`COc1cc2cc3c(c(-c4ccc(N5CCCCC5)cc4)c2cc1OC)C(=O)OC3` [Example 242, 6,7-dimethoxy-9-(4-(piperidin-1-yl)phenyl)naphtho[2,3-c]furan-1(3H)-one]: the “SI (Selectivity Index, CC50/IC50)” value in series [1] was 5.45. For the same molecule, in series [1] (setting [3]), the IC50 amounted to 1.94 µM. The same molecule showed a CC50 in series [2] of 10.6 µM.

Regarding `COC[C@H]1CCCN1c1ncc(-c2c3c(cc4cc(OC)c(OC)cc24)COC3=O)cn1` [Example 102, (R)-6,7-dimethoxy-9-(2-(2-(methoxymethyl)pyrrolidin-1-yl)pyrimidin-5-yl)naphtho[2,3-c]furan-1(3H)-one hydrochloride], the “SI (Selectivity Index, CC50/IC50)” value in series [1] was determined as 30.41. For the same molecule, the concentration for half-maximal inhibition (IC50) in series [1] (setting [4]) was determined as 1.64 µM. Further, in series [2], the CC50 is over 50 µM.

The record behind these values is patent publication US20240368104A1, “Novel Dialkoxynaphtho[2,3-C]Furan-1(3H)-One Derivatives and Pharmaceutical Composition For Preventing or Treating Respiratory Disease or SARS-COV-2 Infection Disease, Comprising Same” (priority 2021, published 2024).
